The record followed here is patent US9833431B2, “Pharmaceutical combinations for the treatment of cancer” (Pitney Pharmaceuticals Pty Limited, priority 2013, dated 2017).

SMILES strings stand for the structures.

One series deals with IGROV-1. Kind of series: SRB cytotoxicity assay, IGROV-1 cells. The class given is cell-based. The settings on record: Homo sapiens, IGROV-1, malignant, ovarian, 72 h. On the procedure:
(§1) All cell lines described herein were purchased from ATCC. […] Control cultures were treated with ethanol alone.

In another series the test system is A2780. Kind of series: SRB cytotoxicity / proliferation assay, A2780 cells. The settings on record: Homo sapiens, A2780, 72 h.
In another series the test system is HT-29. Kind of series: cells. In kind it is cell-based. The settings on record: Homo sapiens; HT-29, malignant, colorectal; SRB, 72 h. On the procedure: as §1
Another series deals with HaCat. Kind of series: SRB cytotoxicity assay, HaCat cells. In kind it is cell-based. The settings on record: Homo sapiens, immortalised, epidermal, 72 h. On the procedure: as §1
Series [1] has as its system all cell lines and cells tested. Kind of series: SRB cytotoxicity assay, all cells of Table 3. In kind it is cell-based. On the procedure: as §1
In the next series the test system is SKOV-3. The experiment in a line: SRB cytotoxicity assay, SKOV-3 cells. The class given is cell-based. The conditions noted are these: Homo sapiens, SK-OV-3, SKOV-3, malignant, ovarian, 72 h. On the procedure:
as §1

In another series the test system is 1A9. The experiment in a line: SRB cytotoxicity assay, 1A9 cells. The class given is cell-based. The settings on record: Homo sapiens, 1A9, malignant, ovarian, 72 h. On the procedure:
as §1

A further series deals with LN-18. The experiment in a line: SRB cytotoxicity assay, LN-18 cells. The settings on record: Homo sapiens; LN-18, malignant, glial; SRB, 72 h. In kind it is cell-based, human. On the procedure:
as §1

A further series has as its system HUVEC. Kind of series: SRB cytotoxicity assay, HUVEC. The class given is cell-based. The conditions noted are these: Homo sapiens, non-malignant, endothelial, 72 h. The procedure: as §1
The test system of a further series is OVCAR-3. The experiment in a line: SRB cytotoxicity / proliferation assay, OVCAR-3 cells. The settings on record: Homo sapiens, OVCAR-3, 72 h.
In a further series the test system is MCF-7. Kind of series: SRB cytotoxicity assay, MCF-7 cells. In kind it is cell-based. The settings on record: Homo sapiens, MCF7, 72 h, MCF-7, malignant, breast. The procedure:
as §1

The next series has as its system CHO. Kind of series: SRB cytotoxicity assay, CHO cells. In kind it is cell-based. The settings on record: Cricetulus griseus, immortalised, ovarian, 72 h. On the procedure: as §1

Experimental for A2780: (§2) Cells were seeded in 96-well plates (2,000-3,000 cells/well) and culture overnight prior to treatment with MPL. Control cultures were treated with ethanol alone.
Cells were seeded in 96-well plates (2,000-3,000 cells/well), treated with the indicated compound(s) for 72 h, fixed, washed and stained with 100 μl of 0.4% (w/v) SRB dissolved in 1% acetic acid. Unbound dye was removed by five washes with 1% acetic acid before air-drying.
Cell viability was conducted according to standard Trypan Blue method. Cell proliferation was assessed using the sulforhodamine B (SRB) assay. For viability experiments, cells were seeded in 6 well plates, whereas for proliferation assays cells were grown in 96 well plates. Following over-night attachment, cells were treated with the intended drug at various concentrations either alone or in combination with monepantel (MPL) for 72 h. Parallel to this, cells treated with MPL alone were also deployed for comparative purposes. Following incubation for 72 h in a standard cell culture incubator, effect of mono and combined drug treatments on cell viability and/or cell proliferation was assessed through using Trypan Blue or SRB assays respectively.
(§3) For viability assay, at the end of treatment period, cells were washed with PBS, trypsinized and counted using Trypan blue and hemocytometer. For the SRB assay cells were fixed, washed and stained with 100 μl of 0.4% (w/v) SRB dissolved in 1% acetic acid. Unbound dye was removed by five washes with 1% acetic acid before air drying. […] Monepantel (gift by Novartis, Basel, Switzerland) was dissolved in 100% ethanol and then diluted with the cell culture media.
Experimental for OVCAR-3: as §2
Cytotoxicity was assessed using the sulforhodamine B (SRB) assay and reported as half maximal inhibitory concentration (IC50; Table 3). Cells were seeded in 96-well plates (2,000-3,000 cells/well), treated with the indicated compound(s) for 72 h, fixed, washed and stained with 100 μl of 0.4% (w/v) SRB dissolved in 1% acetic acid. Unbound dye was removed by five washes with 1% acetic acid before air-drying.
In order to evaluate the effect of MPL on the in vitro efficacy of an established drug was evaluated using cell viability and cell proliferation assays. Cell viability was conducted according to standard Trypan Blue method. Cell proliferation was assessed using the sulforhodamine B (SRB) assay. For viability experiments, cells were seeded in 6 well plates, whereas for proliferation assays cells were grown in 96 well plates. Following over-night attachment, cells were treated with the intended drug at various concentrations either alone or in combination with monepantel (MPL) for 72 h. Parallel to this, cells treated with MPL alone were also deployed for comparative purposes. Following incubation for 72 h in a standard cell culture incubator, effect of mono and combined drug treatments on cell viability and/or cell proliferation was assessed through using Trypan Blue or SRB assays respectively.
as §3
MPL (5 μM) and combination drugs were applied for 72 h unless indicated.

For the compound `C[C@](C#N)(COc1cc(C#N)ccc1C(F)(F)F)NC(=O)c1ccc(S(=O)(=O)C(F)(F)F)cc1` [MPL-SO2, monepantel sulphone], the half-maximal inhibitory concentration (IC50) was found to be 4.4 ± 1.5 µM with IGROV-1; 4.2 ± 2.1 µM in the series with A2780; 2.8 ± 0.7 µM in the series with HT-29; 42.7 ± 8 µM with HaCat; 26 µM with SKOV-3; 3.4 ± 0.1 µM with 1A9. Besides, the IC50 in the series with LN-18 amounted to 6.6 ± 0.7 µM; with HUVEC it was 47 µM; in the series with OVCAR-3, 5.5 ± 1.3 µM; in the series with MCF-7, 8 ± 0.7 µM; in the series on CHO, 73.7 ± 6.9 µM. Further, the “cytotoxicity compared with MPL” value in [1] is “generally comparable to the parent compound”.
